Data from patent US4968539A, “Liquid crystal membrane” (Lion Corporation, priority 1987, dated 1990).
Read-outs that look alike come from different tables or passages of the source.

Experiments:
[1] = Cumulative amount of nitroglycerin permeated through hairless rat skin, two-chamber diffusion cell; assay type: in vitro ADME; conditions: 38° C.
Method: The same membrane sample as that of Example 2 and the same skin of hairless rat as that of Example 3 were mounted in the glass 2-chamber diffusion cell in the same manner as described above. 0.1% aqueous nitroglycerin solution was placed in the donor-side chamber and a phosphate buffer solution (pH 7.4) was placed in the receiver chamber. An increase of the concentration of nitroglycerin in the receiver chamber with time was determined by HPLC. As a control, only the skin free from the sample membrane was used in the experiment of the permeation of nitroglycerin through the skin. The experiment was conducted at 38° C.

[2] = plaster of clonidine; American Heart Journal, 217-222, July (1984); cited from earlier work
in vivo = test: in vivo; set-up: species or system white rabbits; conditions: rabbit
Method: (§1) Hair was removed from the abdomen of a white rabbits weighing 2.0 to 2.5 kg with an electric clipper and the abdomen was then shaved with an electric razor carefully so as not to hurt the skin. A glass cell kept at a constant temperature by circulation of warm water was fixed thereon with a quick adhesive (Alon Alpha® of Toa Gosei Co.) through a membrane sample.
(§2) A drug solution was placed in the glass cell and the concentration of the drug in the blood was determined at time intervals over 48 h. In this experiment, the blood sample was taken from the ear vein of the rabbit at given time intervals and the drug concentration was analyzed according to liquid chromatography.
(§3) The polymer membrane and the drug solution used in this experiment were prepared as follows: in the example of the present invention, a polypropylene membrane (Celgard® 2402 having a port diameter of 0.02 μm and porosity of 38%) was immersed in 15% or 20% solution of polyoxyethylene(3 mol) trimethylolpropane tristearate (TPS-303® of Nippon Emulsion Co.) in chloroform for one hour and then air-dried to obtain the membrane. The drug solution used in this example was 50% aqueous N-methyl-2-pyrrolidone solution further containing 0.01 g/ml of indomethacin.
In a comparative example, about 1 wt.% of indomethacin was mixed in 100 parts by weight of an ointment base comprising 40% of ethyl alcohol, 58.4% of water, 1.5% of a polycarboxylic acid (Carbopol 940® of Goodrich Chemical Co.) and 0.1% of triethanolamine to prepare an ointment. 3 g of the ointment was placed in the constant temperature glass cell. No polymer membrane was used.

[3] = Ketoprofen concentration in the blood after application to rabbit abdomen; assay type: in vivo, white rabbits
Method: as §1, §2, §3
A change of the concentration of ketoprofen in the blood was investigated with the same polymer membrane in the same manner as those of Example 6 except that 3 ml of 30% aqueous ethanol solution in which 0.01 g/ml of ketoprofen had been suspended was used.

[4] = Amount of acetaminophen permeated through hairless rat skin with membrane, two-chamber diffusion cell; assay type: in vitro ADME, WBN/Kob hairless rats
Method: The skin of the abdomen of WBN/Kob hairless rats ("Saitama" experimental animal) was taken under anesthesia (60 mg/kg pentobarbital, I.P.). A membrane sample prepared in the same manner as that of Example 3 was applied to the corneous layer-side of the skin specimens and they were placed in a glass two-chamber diffusion cell. 10% aqueous ethanol solution containing 2.4% of acetaminophen dissolved therein was placed in a donor-side chamber thereof and a phosphate buffer solution (pH 7.4) was placed in a receiver-side chamber. Increase in acetaminophen concentration in the receiver-side chamber with time was determined by HPLC.

[5] = rabbit, blood, topical or ocular, 32° C., read-out: Concentration of drug in blood
[6] = rabbit, blood, topical or ocular, 38° C., read-out: Concentration of drug in blood

O=[N+]([O-])OCC(CO[N+](=O)[O-])O[N+](=O)[O-] [nitroglycerin]
Cumulative amount of permeated nitroglycerin ([1]; With polymer membrane of the present invention, 2 h): 26 μg/cm^2 | Cumulative amount of permeated nitroglycerin ([1]; With polymer membrane of the present invention, 4 hr): 92 μg/cm^2 | Cumulative amount of permeated nitroglycerin ([1]; With polymer membrane of the present invention, 6 hr): 185 μg/cm^2 | Cumulative amount of permeated nitroglycerin ([1]; With polymer membrane of the present invention, 8 hr): 274 μg/cm^2 | Cumulative amount of permeated nitroglycerin ([1]; With polymer membrane of the present invention, 10 hr): 365 μg/cm^2 | Cumulative amount of permeated nitroglycerin ([1]; Without polymer membrane (skin only), 2 h): 8 μg/cm^2 | Cumulative amount of permeated nitroglycerin ([1]; Without polymer membrane (skin only), 4 hr): 44 μg/cm^2 | Cumulative amount of permeated nitroglycerin ([1]; Without polymer membrane (skin only), 6 hr): 101 μg/cm^2 | Cumulative amount of permeated nitroglycerin ([1]; Without polymer membrane (skin only), 8 hr): 154 μg/cm^2 | Cumulative amount of permeated nitroglycerin ([1]; Without polymer membrane (skin only), 10 hr): 218 μg/cm^2

Clc1cccc(Cl)c1N=C1NCCN1 [clonidine]
Time to attain an effective concentration in the blood [2]: three

COc1ccc2c(c1)c(CC(=O)O)c(C)n2C(=O)c1ccc(Cl)cc1 [indomethacin]
Concentration of drug in blood (in vivo; 360 min): 0 ng/mL | Concentration of drug in blood (in vivo; 2880 min): 0 ng/mL | Concentration of drug in blood (in vivo; topical or ocular, 6 h): 22 ng/mL | concentration at 6 h (in vivo; topical or ocular, Concentration of drug in blood): 20 ng/mL

CC(C(=O)O)c1cccc(C(=O)c2ccccc2)c1 (stereo not shown) [ketoprofen]
Concentration of drug in blood ([3]; 32° C., 6 hr): 0 ng/mL | concentration at 24 h [3, 5]: 18 ng/mL | concentration at 48 h [3, 5]: 17 ng/mL | concentration at 6 h ([3]; rabbit, blood, topical or ocular, 38° C., 6 hr, read-out: Concentration of drug in blood): 740 ng/mL | concentration at 24 h [3, 6]: 410 ng/mL | concentration at 48 h [3, 6]: 300 ng/mL

CC(=O)Nc1ccc(O)cc1 [acetaminophen]
Amount of drug permeated through the skin ([4]; 32° C., 2 hr): 0 μg/cm^2 | Amount of drug permeated through the skin ([4]; 32° C., 4 hr): 0 μg/cm^2 | Amount of drug permeated through the skin ([4]; 32° C., 12 hr): 0 μg/cm^2 | Amount of drug permeated through the skin ([4]; 32° C., 24 hr): 2 μg/cm^2 | Amount of drug permeated through the skin ([4]; 32° C., 36 hr): 5 μg/cm^2 | Amount of drug permeated through the skin ([4]; 38° C., 2 hr): 1 μg/cm^2 | Amount of drug permeated through the skin ([4]; 38° C., 4 hr): 3 μg/cm^2 | Amount of drug permeated through the skin ([4]; 38° C., 12 hr): 60 μg/cm^2 | Amount of drug permeated through the skin ([4]; 38° C., 24 hr): 170 μg/cm^2 | Amount of drug permeated through the skin ([4]; 38° C., 36 hr): 330 μg/cm^2
